# Results as given in US7504537B2, “Hydroxamic acid derivative and MMP inhibitor containing the same as active ingredient” (Dainippon Sumitomo Pharma Co., Ltd., priority 2001, dated 2009).
# Experiments:
# Format in all cases: biochemical
# MMP-13 = biological target: T1, MMP-13 (Homo sapiens, UniProt P45452); assay: Test 2 Test on MMP-13 inhibition activity (fluorogenic peptide substrate); settings: activated MMP-13, 37° C.
# T1 construct: a fragment of 767 bp encoding original 84 amino acids of complete MMP-13 and encoding 164 amino acids; made in house; host or cells: E. coli BL21 (DE3), pET11a
# Text: Test 2 Test on MMP-13 Inhibition Activity
# In order to subcloning C-terminal truncated cDNA in which the cDNA encodes procollagenase-3 (proMMP-13) (J. Biol. Chem., 269(24), 16766-16773 (1994)), two synthesized oligonucleotide primer fragments: • (5′-[…]-3′ and 5′-[…]-3′: In former the sequence for specific NdeI site (under line) including first methionine is included, and in latter terminal codon and BamHI site (under lined) are included.) were used with human cartilage cell cDNA library for PCR. Due to these primers and Pfu DNA polymelase (STRATAGENE) for PCR, there was obtained a fragment of 767 bp encoding original 84 amino acids of complete MMP-13 and encoding 164 amino acids. The said fragment was cut out with digestion by NdeI and BamHI, and the fragment was annealed to NdeI site and BamHI site of pET11a (STRATAGENE). The recombinant plasmid was transformed into E. coli BL21 (DE3) and the bacteria were cultivated. The crude cell extract was prepared according to the method of Biochemistry. The said extract was dialyzed with 20 mM Tris-HCl (pH 7.2)/5 mM CaCl2/0.02% NaN3 solution, treated with SP-sepharose HP column (1.6×10 cm, Amasham-Pharmacia biotec), and the eluting was carried out by liner gradient from 0 to 0.3 m of sodium chloride solution (50 ml) (partially purified proMMP-13 was eluted at about 0.2M.) The eluted fraction was dialyzed with 20 mM Tris-HCl (pH 7.9)/5 mM CaCl2/200 mM (NH4)2SO4/0.02% NaN3 solution, treated with phenylsepharose HP column (1.6×5 cm, Amersham-Pharmacia biotec), and the eluting was carried out by liner gradient from 0.2M to 0M sulfuric acid ammonium solution (purified proMMP-13 was eluted at about 50 mM.). The eluted fraction was concentrated by YM-5 ultrafilter membrane, and activated by 4-aminophenyl mercuric acetate. Activated MMP-13 was treated with gel filtration chromatography in accordance with the method of Biochemistry to be separated from propeptide. Inhibiting Test Method
# Enzyme activity test was carried out by the method of G. Knight (FEBS Lett., 296(3), 263-266 (1992)).
# A mixture of activated MMP-13 (20 nM, 10 μl), buffer solution (70 μl, pH 7.5 solution containing 100 mM Tris-HCl solution, 10 mM calcium chloride solution, 100 mM sodium chloride solution and 0.05% Briji-35 solution), MOCAc-Pro-Leu-Gly-Leu-A2pr(DNP)-Ala-Arg-NH2 in 0.1% DMSO solution (100 μM, 10 μl) and a test compound in DMSO solution was incubated for 1.5 hours at 37° C. The mixture was put on a 96 well-plate (100 μl/wel), and the plate was incubated at 37° C. The enzyme activity in the presence of the compound was measured based on fluorescence intensity (λex 320 nm, λem 405 nm), and IC50 was calculated.
# MMP-14 (MT1-MMP) = biological target: T2, MMP-14 (MT1-MMP) (Homo sapiens, UniProt P50281); assay: Test 5 MMP-14 (MT1-MMP) inhibiting activity test; settings: human recombinant MT1-MMP, 37° C.; read-out: MMP-14 inhibition activity value
# T2 construct: purchased Biogenesis, supplied by Cosmobio (Nakarai Tesku)
# Protocol: Test 5 MMP-14 (MTI-MMP) Inhibiting Activity Test
# Human recombinant MTI-MMP used the product prepared by Biogenesis and supplied by Cosmobio (Nakarai Tesku).
# An assay buffer solution (70 μl, pH 7.5 solution containing 0.1M Tris-HCl solution, 0.1M calcium chloride solution, 10 mM sodium chloride solution and 0.05% Brij-35 solution), 0.1 w/w % a compound in DMSO (10 μl), MMP substrate solution (MOCAc-Pro-Leu-Gly-Leu-A2pr(DNP)-Ala-Arg-NH2 (Peptide Lab.) diluted with the assay buffer solution (50 μM, 10 μl)) and human recombinant MT1-MMP (0.4 pg/10 μl/well) were well agitated under stirring. The enzyme activity of the mixture was measured based on fluorescence intensity (λex 320 nm/λem 405 nm) by a fluorescence reader. After the mixture was incubated at 37° C. for 0.5 hour, the fluorescence intensity (λex 320 nm/λem 405 nm) was measured every hour, and IC50 was calculated.
# The inhibition value was calculated by withdrawing average value of blank well from fluorescence mean value of well in which MT1-MMP was added. As the blank was used the mixed solution prepared by adding assay buffer (10 μl) instead of MT1-MMP solution.
# MMP-1 = biological target: T3, MMP-1 (Homo sapiens, UniProt P03956); assay: Test 6 MMP-1 inhibition activity test; settings: MMP-1 from human rheumatic synovium fibroblast, activated with AMPA
# T3 construct: calbiochem cat; purchased calbiochem 444208; host or cells: human rheumatic synovium fibroblast
# T3 sequence (P03956 100-469): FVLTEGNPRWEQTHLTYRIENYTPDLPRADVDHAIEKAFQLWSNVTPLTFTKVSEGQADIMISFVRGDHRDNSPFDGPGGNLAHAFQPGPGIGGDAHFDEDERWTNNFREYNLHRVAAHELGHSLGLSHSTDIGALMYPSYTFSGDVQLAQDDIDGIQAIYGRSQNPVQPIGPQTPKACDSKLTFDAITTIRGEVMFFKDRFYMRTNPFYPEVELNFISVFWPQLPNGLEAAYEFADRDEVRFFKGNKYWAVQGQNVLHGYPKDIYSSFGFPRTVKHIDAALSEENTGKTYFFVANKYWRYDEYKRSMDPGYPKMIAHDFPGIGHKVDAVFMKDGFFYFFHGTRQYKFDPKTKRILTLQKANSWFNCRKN
# Protocol: Test 6 MMP-1 Inhibition Activity Test
# MMP-1 (stroma collagenase: EC3.4.24.7, human rheumatic synovium fibroblast, calbiochem cat. 444208) was activated with AMPA at 37° C. for 60 minutes. A test compound was preincubated with activated MMP-1 at 37° C. for 60 minutes in the reaction mixture containing 50 mM MOPS (pH 7.2), 10 mM aqueous calcium chloride solution, and 10 μM zinc chloride. Thereto was added 25 μM Mca-Pro-Leu-Dpa-Ala-Arg-NH2, and the mixture was incubated at 37° C. for 120 minutes. The enzyme activity was measured by fluorescence intensity of Mca-Pro-Leu-Gly, and IC50 was calculated.
smiles,measurement,setting,value
"CS(=O)(=O)c1ccc(Oc2ccc(S(=O)(=O)N(CCC(=O)O)C3(C(=O)NO)CCCC3)cc2)cc1 [Example 27, N-{1-[(Hydroxyamino)carbonyl]cyclopentyl}-N-({4-[4-(methylsulfonyl)phenoxy]phenyl}sulfonyl)-β-alanine]",IC50,MMP-13,21.3 nM
same,IC50,MMP-14 (MT1-MMP),> 5000 nM
"CCOC(=O)CN(C1(C(=O)NO)CCC1)S(=O)(=O)c1ccc(Oc2ccc(S(C)(=O)=O)cc2)cc1 [Example 46, Ethyl N-{1-[(hydroxyamino)carbonyl]cyclobutyl}-N-({4-[4-(methylsulfonyl)phenoxy]phenyl}sulfonyl)glycinate]",IC50,MMP-13,10.5 nM
same,IC50,MMP-14 (MT1-MMP),> 1500 nM
"CC(C)(C(=O)NO)N(Cc1ccccc1)S(=O)(=O)c1ccc(Oc2ccc(S(C)(=O)=O)cc2)cc1 [Example 10, N′^2′-Benzyl-N′^1′-hydroxy-2-methyl-N′^2′-({4-[4-(methylsulfonyl)phenoxy]phenyl}sulfonyl)alaninamide]",IC50,MMP-13,34.4 nM
same,IC50,MMP-14 (MT1-MMP),> 5000 nM
"CS(=O)(=O)c1ccc(Oc2ccc(S(=O)(=O)NCC(=O)NO)cc2)cc1 [Example 13, N′^1′-Hydroxy-N′^2′-({4-[4-(methylsulfonyl)phenoxy]phenyl}sulfonyl)glycinamide]",IC50,MMP-13,10.8 nM
same,IC50,MMP-1,> 10000 nM
same,IC50,MMP-14 (MT1-MMP),> 5000 nM
"CS(=O)(=O)c1ccc(Oc2ccc(S(=O)(=O)NC3(C(=O)NO)CCC3)cc2)cc1 [Example 48, N-Hydroxy-1-[({4-[4-(methylsulfonyl)phenoxy]phenyl}sulfonyl)amino]cyclobutanecarboxamide]",IC50,MMP-13,6.9 nM
same,IC50,MMP-14 (MT1-MMP),> 1500 nM
"CCOC(=O)CCN(C1(C(=O)NO)CCCC1)S(=O)(=O)c1ccc(Oc2ccc(S(C)(=O)=O)cc2)cc1 [Example 26, Ethyl N-{1-[(hydroxyamino)carbonyl]cyclopentyl}-N-({4-[4-(methylsulfonyl)phenoxy]phenyl}sulfonyl)-β-alaninate]",IC50,MMP-13,1.9 nM
same,IC50,MMP-1,3900 nM
same,IC50,MMP-14 (MT1-MMP),395 nM
"CS(=O)(=O)c1ccc(Oc2ccc(S(=O)(=O)N(CCC(=O)O)CC(=O)NO)cc2)cc1 [Example 36, N-[2-(Hydroxyamino)-2-oxoethyl]-N-({4-[4-(methylsulfonyl)phenoxy]phenyl}sulfonyl)-β-alanine]",IC50,MMP-13,3.81 nM
same,IC50,MMP-14 (MT1-MMP),938 nM
"CS(=O)(=O)c1ccc(Oc2ccc(S(=O)(=O)N(CC(=O)O)CC(=O)NO)cc2)cc1 [Example 24, N-{[(Hydroxyamino)carbonyl]methyl}-N-({4-[4-(methylsulfonyl)phenoxy]phenyl}sulfonyl)-glycine]",IC50,MMP-13,16.3 nM
same,IC50,MMP-14 (MT1-MMP),> 5000 nM
"CCOC(=O)CN(C1(C(=O)NO)CCCC1)S(=O)(=O)c1ccc(Oc2ccc(S(C)(=O)=O)cc2)cc1 [Example 23, Ethyl N-{1-[(hydroxyamino)carbonyl]cyclopentyl}-N-({4-[4-(methylsulfonyl)phenoxy]phenyl}sulfonyl)glycinate]",IC50,MMP-13,4.1 nM
same,IC50,MMP-1,> 10000 nM
same,IC50,MMP-14 (MT1-MMP),> 5000 nM
"COCCCN(CC(=O)NO)S(=O)(=O)c1ccc(Oc2ccc(S(C)(=O)=O)cc2)cc1 [Example 43, N^1-Hydroxy-N^2-(3-methoxypropyl)-N^2-({4-[4-(methylsulfonyl)phenoxy]phenyl}sulfonyl)glycinamide]",IC50,MMP-13,< 0.5 nM
same,IC50,MMP-14 (MT1-MMP),82 nM
"CC(C)OCCN(CC(=O)NO)S(=O)(=O)c1ccc(Oc2ccc(S(C)(=O)=O)cc2)cc1 [Example 3, N^1-hydroxy-N^2-(2-isopropoxyethyl)-N^2-({4-[4-(methylsulfonyl)phenoxy]phenyl}sulfonyl)glycinamide]",IC50,MMP-13,0.5 nM
same,IC50,MMP-14 (MT1-MMP),172 nM
"COCCN(CC(=O)NO)S(=O)(=O)c1ccc(Oc2ccc(S(C)(=O)=O)cc2)cc1 [Example 44, N^1-Hydroxy-N^2-(2-methoxyethyl)-N^2-({4-[4-(methylsulfonyl)phenoxy]phenyl}sulfonyl)glycinamide]",IC50,MMP-13,0.5 nM
same,IC50,MMP-14 (MT1-MMP),343 nM
"CS(=O)(=O)c1ccc(Oc2ccc(S(=O)(=O)N(CC(=O)NO)Cc3ccncc3)cc2)cc1 [Example 42, N′^1′-Hydroxy-N′^2′-({4-[4-(methylsulfonyl)phenoxy]phenyl}sulfonyl)-N′^2′-(4-pyridinylmethyl)glycinamide]",IC50,MMP-13,4.02 nM
same,IC50,MMP-1,> 10000 nM
same,IC50,MMP-14 (MT1-MMP),> 5000 nM
"COc1ccc(Oc2ccc(CC3Sc4ccc(C(=O)O)cc4N(CC(=O)NO)C3=O)cc2)cc1 (centres unmarked) [compound 1, reference compound]",IC50,MMP-13,7.4 nM
same,IC50,MMP-14 (MT1-MMP),87.3 nM
"CC(C)CN(C1(C(=O)NO)CCC1)S(=O)(=O)c1ccc(Oc2ccc(S(C)(=O)=O)cc2)cc1 [Example 18, N-Hydroxy-1-[isobutyl({4-[4-(methylsulfonyl)phenoxy]phenyl}sulfonyl)amino]cyclobutanecarboxamide]",IC50,MMP-13,3.1 nM
same,IC50,MMP-1,3300 nM
same,IC50,MMP-14 (MT1-MMP),799 nM
"CC(C)CN(C1(C(=O)NO)CCOCC1)S(=O)(=O)c1ccc(Oc2ccc(S(C)(=O)=O)cc2)cc1 [Example 15, N-Hydroxy-4-[isobutyl({4-[4-(methylsulfonyl)phenoxy]phenyl}sulfonyl)amino]tetrahydro-2H-pyrane-4-carboxamide]",IC50,MMP-13,24.6 nM
same,IC50,MMP-14 (MT1-MMP),> 5000 nM
"CCOC(=O)CCN(C1(C(=O)NO)CCOCC1)S(=O)(=O)c1ccc(Oc2ccc(S(C)(=O)=O)cc2)cc1 [Example 31, Ethyl N-{4-[(hydroxyamino)carbonyl]tetrahydro-2H-pyran-4-yl}-N-({4-[4-(methylsulfonyl)phenoxy]phenyl}sulfonyl)-β-alaninate]",IC50,MMP-13,11.2 nM
same,IC50,MMP-14 (MT1-MMP),> 5000 nM
"CCOCCN(C1(C(=O)NO)CCCC1)S(=O)(=O)c1ccc(Oc2ccc(S(C)(=O)=O)cc2)cc1 [Example 45, 1-[(2-Ethoxyethyl)({4-[4-(methylsulfonyl)phenoxy]phenyl}sulfonyl)amino]-N-hydroxycyclopentanecarboxamide]",IC50,MMP-13,0.6 nM
same,IC50,MMP-1,4960 nM
same,IC50,MMP-14 (MT1-MMP),> 1500 nM
CS(=O)(=O)c1ccc(Oc2ccc(CC3Sc4ccc(C(=O)O)cc4N(CC(=O)NO)C3=O)cc2)cc1 (centres unmarked) [Example 50],IC50,MMP-13,3 nM
same,IC50,MMP-14 (MT1-MMP),> 1000 nM
